One assay addresses hMOR (Homo sapiens, UniProt P35372). Put plainly: Radioligand binding assay (Eurofins Cerep), [3H]DAMGO displacement.
A further assay concerns the target hKOR (Homo sapiens, UniProt P41145). Put plainly: Radioligand binding assay (Eurofins Cerep), [3H]U69,593 displacement.
A further assay deals with hDOR (Homo sapiens, UniProt P41143). Put plainly: Radioligand binding assay (Eurofins Cerep), [3H]DADLE displacement.
For a further assay, the target named is T1, α2A adrenergic receptor (Homo sapiens, UniProt P08913).
T1 construct: Eurofins Cerep (contract screening)
T1 sequence (P08913 1-465): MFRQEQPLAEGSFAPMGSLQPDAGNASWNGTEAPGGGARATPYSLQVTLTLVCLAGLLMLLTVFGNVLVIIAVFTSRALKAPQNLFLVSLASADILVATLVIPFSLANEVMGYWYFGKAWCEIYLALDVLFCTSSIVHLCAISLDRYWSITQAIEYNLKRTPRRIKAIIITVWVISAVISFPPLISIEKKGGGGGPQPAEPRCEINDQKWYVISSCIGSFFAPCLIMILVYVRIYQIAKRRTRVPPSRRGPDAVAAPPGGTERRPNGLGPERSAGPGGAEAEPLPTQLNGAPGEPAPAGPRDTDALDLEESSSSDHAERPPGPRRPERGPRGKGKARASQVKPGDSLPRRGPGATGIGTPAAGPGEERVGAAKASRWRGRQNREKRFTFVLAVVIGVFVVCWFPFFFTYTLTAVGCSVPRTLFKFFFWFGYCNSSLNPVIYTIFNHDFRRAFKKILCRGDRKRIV
Put plainly: Radioligand binding assay (Eurofins Cerep), [3H]RX 821002 displacement.

The mark [1] stands for this setting: Table B1′, read-out: MOR Ki ± SEM.
[2] abbreviates: Table B1′, read-out: KOR Ki ± SEM.
[3] abbreviates: Table B1′, read-out: DOR Ki ± SEM.
Where [4] appears, read: alpha2A Ki ± SEM (nM), Table B1′.
[5] abbreviates: Table 3-2, 3 independent experiments, read-out: Ki (nM ± SEM) MOR.
Setting [6] is: Table 3-2, 3 independent experiments, read-out: Ki (nM ± SEM) KOR.
[7] abbreviates: Table 3-2, 3 independent experiments, read-out: Ki (nM ± SEM) DOR.
Where [8] appears, read: Ki (nM ± SEM) a2A-AR, Table 3-2, 3 independent experiments.
Where [9] appears, read: Table A4, data summary #2, read-out: MOR Ki ± SEM.
Setting [10] is: Table A4, data summary #2, read-out: DOR Ki ± SEM.
[11] abbreviates: Table 3-5, 3 independent experiments, read-out: Ki (nM ± SEM) MOR.
Setting [12] is: Table 3-5, 3 independent experiments, read-out: Ki (nM ± SEM) KOR.
Setting [13] is: Table 3-5, 3 independent experiments, read-out: Ki (nM ± SEM) DOR.
Setting [14] is: Table 3-5, 3 independent experiments, read-out: Ki (nM ± SEM) a2A-ar.
[15] abbreviates: Table 3-3, 3 independent experiments, read-out: Ki (nM ± SEM) MOR.
The mark [16] stands for this setting: Table 3-3, 3 independent experiments, read-out: Ki (nM ± SEM) KOR.

Each structure is given as a SMILES string. Where two headings read alike, the source gives them in different places.

Broadly, the Ki is the equilibrium dissociation constant of an inhibitor or competing ligand from its target.

hKOR, sequence (P41145 whole entry): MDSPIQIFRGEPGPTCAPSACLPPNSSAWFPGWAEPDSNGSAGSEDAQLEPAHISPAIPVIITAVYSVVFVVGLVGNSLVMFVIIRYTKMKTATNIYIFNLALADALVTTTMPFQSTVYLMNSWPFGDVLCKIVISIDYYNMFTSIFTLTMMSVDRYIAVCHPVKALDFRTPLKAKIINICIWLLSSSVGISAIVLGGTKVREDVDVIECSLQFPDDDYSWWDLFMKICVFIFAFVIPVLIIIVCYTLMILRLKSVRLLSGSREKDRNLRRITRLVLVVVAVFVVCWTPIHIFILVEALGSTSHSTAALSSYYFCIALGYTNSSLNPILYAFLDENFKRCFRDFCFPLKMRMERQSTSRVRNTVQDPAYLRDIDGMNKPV
hDOR, sequence (P41143 whole entry): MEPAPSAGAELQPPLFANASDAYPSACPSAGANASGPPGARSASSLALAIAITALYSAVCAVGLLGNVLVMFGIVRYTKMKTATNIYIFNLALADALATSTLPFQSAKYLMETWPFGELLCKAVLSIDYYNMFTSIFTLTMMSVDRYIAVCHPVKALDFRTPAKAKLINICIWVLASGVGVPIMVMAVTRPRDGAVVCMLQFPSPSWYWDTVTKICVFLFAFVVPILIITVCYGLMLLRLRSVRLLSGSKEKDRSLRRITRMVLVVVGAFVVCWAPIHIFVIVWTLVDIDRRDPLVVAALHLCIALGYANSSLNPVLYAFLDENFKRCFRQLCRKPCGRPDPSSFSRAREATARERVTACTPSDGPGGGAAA
hMOR, sequence (P35372 whole entry): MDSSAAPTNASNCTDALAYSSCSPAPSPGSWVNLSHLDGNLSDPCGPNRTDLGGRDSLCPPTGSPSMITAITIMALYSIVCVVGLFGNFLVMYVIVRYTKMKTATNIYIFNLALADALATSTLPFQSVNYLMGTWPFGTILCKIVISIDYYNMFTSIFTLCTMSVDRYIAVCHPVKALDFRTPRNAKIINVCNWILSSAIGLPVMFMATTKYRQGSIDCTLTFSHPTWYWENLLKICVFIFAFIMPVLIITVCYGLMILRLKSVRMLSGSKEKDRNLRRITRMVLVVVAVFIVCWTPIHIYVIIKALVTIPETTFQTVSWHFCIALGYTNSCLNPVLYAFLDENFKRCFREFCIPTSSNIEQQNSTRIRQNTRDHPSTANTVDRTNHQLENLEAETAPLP

For the molecule `COC(=O)C=C1CCN2CCC(O)(c3cccc(OC)c3)CC2C1` (stereo not drawn) [drawing 180], the Ki was over 10000 nM on hMOR (setting [1]), over 10000 nM on hKOR (setting [2]), over 10000 nM on hDOR (setting [3]) and 44 ± 5 nM on α2A adrenergic receptor (setting [4]).
With `COC=C(C(=O)OC)C1CCN(CCc2c[nH]c3ccc(OC)cc23)CC1` [Compound 3-37], the “SR: Selectivity Ratio (KiMOR/Kiα2A)” value on hMOR (Table 3-2) is 0.22. Besides, the Ki on hMOR (setting [5]) is 733 ± 144 nM; at hKOR (setting [6]) it was 1300 ± 129 nM; at hDOR (setting [7]), over 10000 nM; at α2A adrenergic receptor (setting [8]), 3370 ± 586 nM.
For the molecule `CC[C@@H]1CN2CCc3c([nH]c4cccc(OC)c34)[C@@H]2C[C@@H]1/C(=C\OC)C(=O)N1CCSCC1` [SUSM-564], the values for the Ki on hMOR (setting [9]) and on hDOR (setting [10]) were 134 ± 32 nM and over 10000 nM, respectively.
As to `COC(=O)CC1CCN2CCC(O)(c3ccc(F)cc3)CC2C1` (stereo not drawn), the inhibition constant Ki was 424 ± 203 nM on hMOR (setting [1]), over 10000 nM at hKOR (setting [2]), over 10000 nM on hDOR (setting [3]) and 240 ± 63 nM on α2A adrenergic receptor (setting [4]).
As to `COC(=O)CC1CCN(CC(=O)c2c[nH]c3cccc(OC)c23)CC1` [Compound 3-63], the Ki is over 10000 nM at hMOR (setting [11]), over 10000 nM on hKOR (setting [12]), over 10000 nM on hDOR (setting [13]) and 6370 ± 1160 nM on α2A adrenergic receptor (setting [14]).
Take `COC(=O)C=C1CCN2CCC(O)(c3ccc(F)cc3)CC2C1` (stereo not drawn): the Ki on hMOR (setting [1]) is 672 ± 222 nM; at hKOR (setting [2]) it was over 10000 nM; on hDOR (setting [3]) it was over 10000 nM; at α2A adrenergic receptor (setting [4]), 311 ± 73 nM.
As for `COC(=O)CC1CCN(Cc2c[nH]c3ccccc23)CC1` [Compound 3-58], the “SR: Selectivity Ratio (KiMOR/Kiα2A)” value on hMOR (Table 3-5) stood at 0.78. Besides, the Ki at hMOR (setting [11]) was 2700 ± 580 nM; on hKOR (setting [12]), 791 ± 216 nM; on hDOR (setting [13]) it was over 10000 nM; at α2A adrenergic receptor (setting [14]), 3460 ± 428 nM.
With `COC(=O)NC1CCN(CCc2c[nH]c3ccccc23)CC1` [Compound 3-68], at hMOR (Table 3-6), the “SR: Selectivity Ratio (KiMOR/Kiα2A)” value amounted to 0.37. Moreover, the Ki on hMOR (Table 3-6, 3 independent experiments, read-out: Ki (nM ± SEM) MOR) is 1890 ± 454 nM; at hKOR (Table 3-6, 3 independent experiments, read-out: Ki (nM ± SEM) KOR), over 10000 nM; on hDOR (Table 3-6, 3 independent experiments, read-out: Ki (nM ± SEM) DOR) it was over 10000 nM; at α2A adrenergic receptor (Ki (nM ± SEM) a2A-AR, Table 3-6, 3 independent experiments), 5090 ± 730 nM.
On to `COC(=O)C=C1CCN2CCC(O)(c3ccccc3)CC2C1` (stereo not drawn) [SG-01-053], for which the Ki on hMOR (Table B2, mean ± SEM, 3 independent experiments, read-out: MOR Ki ± SEM) is over 10000 nM; at α2A adrenergic receptor (Alpha2A Ki ± SEM (nM), Table B2, mean ± SEM, 3 independent experiments), 95 ± 35 nM.
Regarding `COC(=O)CC1CCN2CCC(O)(c3ccccc3)CC2C1` (stereo not drawn) [drawing 173], the Ki is 8610 ± 2530 nM on hMOR (setting [1]), 3600 ± 1080 nM on hKOR (setting [2]), over 10000 nM on hDOR (setting [3]) and 129 ± 49 nM at α2A adrenergic receptor (setting [4]).
Consider `COC(=O)CC1CCN(CCc2cn(CCc3c[nH]c4ccccc34)c3ccccc23)CC1` [Compound 3-45], for which, on hMOR (Table 3-3), the “SR: Selectivity Ratio (KiMOR/Kiα2A)” value was found to be 1.32. In addition, the Ki on hMOR (setting [15]) is 9280 ± 1730 nM; at hKOR (setting [16]) it was over 10000 nM; at hDOR (Table 3-3, 3 independent experiments, read-out: Ki (nM ± SEM) DOR), over 10000 nM; at α2A adrenergic receptor (Table 3-3, 3 independent experiments, read-out: Ki (nM ± SEM) a2A-AR) it was 7030 ± 2020 nM.
With `COC(=O)CC1CCN2CCC(c3ccccc3)=CC2C1` (stereo not drawn), the Ki at hMOR (setting [1]) is 7930 ± 1340 nM; at hKOR (setting [2]), 683 ± 142 nM; at hDOR (setting [3]), over 10000 nM; at α2A adrenergic receptor (Table B1′, read-out: alpha2A Ki ± SEM), 5 ± 2 nM.
For the molecule `COC(=O)CC1CCN(CCc2c[nH]c3ccc(OC)cc23)CC1` [Compound 3-38], the Ki is over 10000 nM at hMOR (setting [5]), 8070 ± 810 nM on hKOR (setting [6]), over 10000 nM at hDOR (setting [7]) and 1590 ± 225 nM at α2A adrenergic receptor (setting [8]).
In the case of `CC[C@@H]1CN2CCc3c([nH]c4cccc(OC)c34)[C@@H]2C[C@@H]1/C(=C\OC)C(=O)N1CCNCC1` [SUSM-562, (E)-2-((2S,3S,12bS)-3-ethyl-8-methoxy-1,2,3,4,6,7,12,12b-octahydroindolo[2,3-a]quinolizin-2-yl)-3-methoxy-1-(piperazin-1-yl)prop-2-en-1-one], the results for the inhibition constant Ki on hMOR (setting [9]) and on hDOR were 4210 ± 558 nM and over 10000 nM, respectively.
Take `COC(=O)CC1CCN(CCc2c[nH]c3ccccc23)CC1` [Compound 3-43]: the inhibition constant Ki on hMOR (setting [15]) was 8910 ± 1800 nM; at hKOR (setting [16]) it was over 10000 nM; at hDOR (read-out: Ki (nM ± SEM) DOR, Table 3-3, 3 independent experiments), over 10000 nM; on α2A adrenergic receptor (read-out: Ki (nM ± SEM) a2A-AR, Table 3-3, 3 independent experiments), 1840 ± 201 nM.
On to `CC[C@@H]1CN2CCc3c([nH]c4cccc(OC)c34)[C@@H]2C[C@@H]1/C(=C\OC)C(=O)N1CCOCC1` [SUSM-527, (E)-2-((2S,3S,12bS)-3-ethyl-8-methoxy-1,2,3,4,6,7,12,12b-octahydroindolo[2,3-a]quinolizin-2-yl)-3-methoxy-1-morpholinoprop-2-en-1-one], for which the values for the Ki on hMOR (setting [9]) and at hDOR (setting [10]) were 1660 ± 427 nM and over 10000 nM, respectively.

Values taken from US20260234147A1 (priority 2023, published 2026).
